Where a name gives a salt, the structure may show the parent alone. Read-outs that look alike come from different tables or passages of the source.
Experiments:
Type in all cases: cell-based
[1] = system: MYB mRNA; assay: Splicing RT-qPCR assay (THP), Table 2A
[2] = system: MYB mRNA; assay: Gene panel canonical junction qPCR assay, decrease in CJ mRNA, Table 3
Method in brief: (§1)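 A673 cells were plated, left to adhere for 24 h, then dosed; K562 cells were plated in 96- or 384-well format and dosed directly. Both were incubated 24 h at 37 °C with an 11-point 3-fold series (top 10 uM final). Canonical junction mRNA was then read by cDNA synthesis and qPCR.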

[3] = system: HTT mRNA; assay: as above
Method in brief: as §1

[4] = system: SH-SY5Y (human neuroblastoma) cells; assay: Cell viability, Cell Titer Glo 2.0 assay; details: read-out: Viability SHSY5Y.3 GI50
Method in brief: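 SH-SY5Y neuroblastoma cells are exposed to test compounds for 72 hours at 37 °C and 5% CO2, with final DMSO held at 0.1%. Cell viability is then measured with the CellTiter-Glo 2.0 assay.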

[5] = system: HTT mRNA; assay: Splicing RT-qPCR assay (THP), Table 2A
[6] = Table 2A (THP), AJ mRNA increase, read-out: MYB AJ (increase in alternative junction mRNA, AC50)
[7] = Table 2A (THP), CJ mRNA decrease, read-out: MYB CJ (decrease in canonical junction mRNA, IC50)
[8] = decrease in canonical junction (CJ) mRNA, gene panel qPCR, Table 3
[9] = Table 2A (THP), AJ mRNA increase, read-out: HTT AJ (increase in alternative junction mRNA, AC50)
[10] = Table 2A (THP), CJ mRNA decrease, read-out: HTT CJ (decrease in canonical junction mRNA, IC50)
[11] = Table 2A, THP, MYB alternative junction (AJ) mRNA, read-out: MYB AJ (AC50, increase in alternative junction mRNA)
[12] = Table 2A, THP, MYB canonical junction (CJ) mRNA, read-out: MYB CJ (IC50, decrease in canonical junction mRNA)
[13] = decrease in CJ mRNA levels, canonical junction qPCR, gene panel
[14] = Table 2A, THP, HTT alternative junction (AJ) mRNA, read-out: HTT AJ (AC50, increase in alternative junction mRNA)
[15] = Table 2A, THP, HTT canonical junction (CJ) mRNA, read-out: HTT CJ (IC50, decrease in canonical junction mRNA)

IC50 [1, 7]	IC50 [2, 8]	IC50 [3, 8]	GI50 [4]	IC50 [5, 10]	IC50 [1, 12]	IC50 [2, 13]	IC50 [3, 13]	IC50 [5, 15]	Compound	AC50 [1, 6]	AC50 [5, 9]	AC50 [1, 11]	AC50 [5, 14]
> 10000 nM	> 10000 nM	> 10 µM	> 10000 nM	> 10 µM	–	–	–	–	CCNC1CCN(c2cc(F)c(C(=O)Nc3cn4c(N)c(C)nc4c(F)c3OC)c3nn(C)cc23)CC1 [Compound 310, N-(3-amino-8-fluoro-7-methoxy-2-methyl-imidazo[1,2-a]pyridin-6-yl)-4-[4-(ethylamino)-1-piperidyl]-6-fluoro-2-methyl-indazole-7-carboxamide]	> 10000 nM	> 10 µM	–	–
100 to 1000 nM	100 to 1000 nM	1 to 10 µM	1000 to 10000 nM	1 to 10 µM	–	–	–	–	Cc1cn2cc(NC(=O)c3ccc(N4CCC(N[C@@H]5C[C@@H]5O)CC4)c4cn(C)nc34)cc(F)c2n1 [Compound 371, N-(8-fluoro-2-methyl-imidazo-[1,2-a]pyridin-6-yl)-4-(4-(((1R,2S)-2-hydroxy-cyclopropyl)-amino)piperidin-1-yl)-2-methyl-2H-indazole-7-carboxamide hydrochloride]	< 100 nM	1 to 10 µM	–	–
1000 to 10000 nM	1000 to 10000 nM	> 10 µM	> 10000 nM	> 10 µM	–	–	–	–	COc1cc2nn(C)cc2cc1NC(=O)c1c(F)cc(N2CC3(CNC3)C2)c2cn(C)nc12 [Compound 455, 4-(2,6-diazaspiro[3.3]-heptan-2-yl)-6-fluoro-N-(6-methoxy-2-methyl-indazol-5-yl)-2-methyl-indazole-7-carboxamide]	1000 to 10000 nM	> 10 µM	–	–
> 10000 nM	> 10000 nM	> 10 µM	1000 to 10000 nM	> 10 µM	–	–	–	–	Cc1cc2cc(NC(=O)c3c(F)cc(N4CCC(NC5CC5)CC4)c4cn(C)nc34)sc2c(C)n1 [Compound 484, 4-[4-(cyclopropyl-amino)-1-piperidyl]-N-(5,7-dimethyl-thieno[2,3-c]pyridin-2-yl)-6-fluoro-2-methyl-indazole-7-carboxamide]	> 10000 nM	> 10 µM	–	–
–	–	–	1000 to 10000 nM	–	< 100 nM	< 100 nM	0.1 to 1 µM	0.1 to 1 µM	CC(=O)Nc1nc2c(C(=O)Nc3cc(F)c4nn(C)cc4c3)ccc(N3C[C@H](C)N[C@@H](C)C3)c2s1 [Compound 724, 2-acetamido-7-[(3S,5S)-3,5-dimethylpiperazin-1-yl]-N-(7-fluoro-2-methyl-indazol-5-yl)-1,3-benzothiazole-4-carboxamide]	–	–	< 100 nM	1 to 10 µM
100 to 1000 nM	100 to 1000 nM	0.1 to 1 µM	1000 to 10000 nM	0.1 to 1 µM	–	–	–	–	COc1cc2nn(C)cc2cc1NC(=O)c1ccc(OC2CCNC2)c2cn(C)nc12 (stereo not shown) [Compound 567]	100 to 1000 nM	1 to 10 µM	–	–
< 100 nM	< 100 nM	0.1 to 1 µM	100 to 1000 nM	0.1 to 1 µM	–	–	–	–	CCOc1cc2nn(C)cc2cc1NC(=O)c1c(F)cc(N2CCC(NC3CC3)CC2)c2cn(C)nc12 [Compound 415, 4-[4-(cyclopropyl-amino)-1-piperidyl]-N-(6-ethoxy-2-methylindazol-5-yl)-6-fluoro-2-methylindazole-7-carboxamide]	< 100 nM	0.1 to 1 µM	–	–
100 to 1000 nM	100 to 1000 nM	> 10 µM	1000 to 10000 nM	> 10 µM	–	–	–	–	Cc1cn2cc(NC(=O)c3ccc(N4CCNC(C)C4)c4cn(C)nc34)nc2c(C)n1 (stereo not shown) [Compound 557]	100 to 1000 nM	> 10 µM	–	–
–	–	–	> 10000 nM	–	> 10000 nM	> 10000 nM	> 10 µM	> 10 µM	Cc1cn2cc(NC(=O)c3ccc(N4CCC(NC5CC5)CC4)c4cn(C)nc34)nc2c(CCNS(C)(=O)=O)n1 [Compound 778]	–	–	> 10000 nM	> 10 µM
–	–	–	> 10000 nM	–	> 10000 nM	> 10000 nM	> 10 µM	> 10 µM	C=CCNC1CCN(c2ccc(C(=O)Nc3cc(CNC4(C)COC4)c4nn(C)cc4c3)c3nn(C)cc23)CC1 [Compound 835]	–	–	> 10000 nM	> 10 µM
–	–	–	> 10000 nM	–	1000 to 10000 nM	1000 to 10000 nM	1 to 10 µM	1 to 10 µM	Cc1cn2cc(NC(=O)c3ccc(NC(=O)C4CCCN4)c4[nH]cnc34)cc(F)c2n1 (stereo not shown) [Compound 613, N-(8-fluoro-2-methyl-imidazo[1,2-a]pyridin-6-yl)-7-(pyrrolidine-2-carbonylamino)-1H-benzimidazole-4-carboxamide]	–	–	1000 to 10000 nM	> 10 µM
100 to 1000 nM	100 to 1000 nM	1 to 10 µM	1000 to 10000 nM	1 to 10 µM	–	–	–	–	CCNC1CCN(c2ccc(C(=O)Nc3cc(Oc4cccc(C#N)c4)c4nc(C)cn4c3)c3nn(C)cc23)CC1 [Compound 326, N-[8-(3-cyano-phenoxy)-2-methylimidazo[1,2-a]pyridin-6-yl]-4-[4-(ethylamino)-1-piperidyl]-2-methyl-indazole-7-carboxamide]	100 to 1000 nM	1 to 10 µM	–	–
–	–	–	< 100 nM	–	< 100 nM	< 100 nM	< 0.1 µM	< 0.1 µM	COc1nc2c(C(=O)Nc3cc(F)c4nn(C)cc4c3)ccc(N3CCN[C@@H](CO)C3)c2s1 [Compound 743, (R)—N-(7-fluoro-2-methyl-2H-indazol-5-yl)-7-(3-(hydroxymethyl)piperazin-1-yl)-2-methoxybenzo[d]thiazole-4-carboxamide 2,2,2-trifluoroacetate]	–	–	< 100 nM	< 0.1 µM
1000 to 10000 nM	1000 to 10000 nM	> 10 µM	1000 to 10000 nM	> 10 µM	–	–	–	–	COc1c(NC(=O)c2c(F)cc(N3CCC(NC4CC4)CC3)c3cn(C)nc23)cn2cc(C)nc(C)c12 [Compound 419, 4-[4-(cyclopropylamino)-1-piperidyl]-6-fluoro-N-(8-methoxy-1,3-dimethyl-pyrrolo[1,2-a]pyrazin-7-yl)-2-methyl-indazole-7-carboxamide]	1000 to 10000 nM	> 10 µM	–	–
> 10000 nM	> 10000 nM	> 10 µM	> 10000 nM	> 10 µM	–	–	–	–	Cc1cn2cc(NC(=O)c3c(F)cc(N4CCC(NC5CC5)CC4)c4cn(C)nc34)nc(-n3ccccc3=O)c2n1 [Compound 427, 4-[4-(cyclopropylamino)-1-piperidyl]-6-fluoro-2-methyl-N-[2-methyl-8-(2-oxo-1-pyridyl)-imidazo[1,2-a]-pyrazin-6-yl]-indazole-7-carboxamide]	1000 to 10000 nM	> 10 µM	–	–
–	–	–	100 to 1000 nM	–	100 to 1000 nM	100 to 1000 nM	0.1 to 1 µM	0.1 to 1 µM	COc1nc2c(C(=O)Nc3cc4cn(C)nc4cc3OC)ccc(N3CCC(NC4CC4)CC3)c2o1 [Compound 681, 7-[4-(cyclopropylamino)-1-piperidyl]-2-methoxy-N-(6-methoxy-2-methyl-indazol-5-yl)-1,3-benzoxazole-4-carboxamide]	–	–	< 100 nM	0.1 to 1 µM
–	–	–	100 to 1000 nM	–	< 100 nM	< 100 nM	> 10 µM	> 10 µM	COc1nc2c(C(=O)Nc3cc(C)c4nn(C)cc4n3)ccc(N3C[C@H](C)N[C@@H](C)C3)c2s1 [Compound 738, N-(2,7-dimethyl-2H-pyrazolo[4,3-b]pyridin-5-yl)-7-((3S,5S)-3,5-dimethylpiperazin-1-yl)-2-methoxybenzo[d]thiazole-4-carboxamide 2,2,2-trifluoroacetate]	–	–	< 100 nM	> 10 µM
–	–	–	1000 to 10000 nM	–	> 10000 nM	> 10000 nM	> 10 µM	> 10 µM	Cc1cn2cc(NC(=O)c3c(F)cc(N4CCC(NC5CC5)CC4)c4nc(C)sc34)cc(F)c2n1 [Compound 662, 4-[4-(cyclopropyl-amino)-1-piperidyl]-6-fluoro-N-(8-fluoro-2-methyl-imidazo[1,2-a]pyridin-6-yl)-2-methyl-1,3-benzothiazole-7-carboxamide]	–	–	> 10000 nM	> 10 µM
–	–	–	1000 to 10000 nM	–	100 to 1000 nM	100 to 1000 nM	> 10 µM	> 10 µM	COC(=O)NCc1cc(NC(=O)c2ccc(N3CCC(NC4CC4)CC3)c3cn(C)nc23)cc2cn(C)nc12 [Compound 814]	–	–	1000 to 10000 nM	> 10 µM

Source: patent US20260285853A1, “COMPOUNDS AND METHODS FOR MODULATING SPLICING” (REMIX THERAPEUTICS INC., priority 2023, published 2026)
